Key:
[1] = tested on: embryonic (E18) rat cortical and striatal neurons; assay: LDH assay, glutamate / tPA insult (Example 1); format: cell-based
Experimental: For this example PAN-811 was dissolved in PEG:EtOH (7:3) to a concentration of 25 mM, and further diluted in neurobasal medium to a final concentration of 2 μM. The control vehicle is 1:12,500 PEG:EtOH (7:3 in BSS).
(§1) A mixed culture of embryonic (E18) rat cortical and striatal neurons was cultured for 22 days in 50% antioxidative (AO) neurobasal medium (made by replacing 50% of the neurobasal culture medium with a medium comprised of neurobasal plus B27 supplement (minus AO, i.e., without the antioxidants vitamin E, vitamin E acetate, 2.5 mg/L superoxide dismutase, 2.5 mg/L catalase, and 1 mg/L glutathione) (from Invitrogen)), and then divided into test groups in accordance with the following scheme: (1) not insulted (control); (2) insulted with 15 μM glutamate; (3) insulted with 20 μg/ml tPA; or (4) insulted with both 15 μM glutamate and 20 μg/ml tPA, for a period of 24 hours. In a further test category, neurons that were to be insulted for 24 hours with the combination of 15 μM glutamate and 20 μg/ml tPA, were divided into groups in which (1) cells were not pre-treated prior to insult; (2) were pretreated overnight with 1:12,500 vehicle (used for PAN-811), or (3) were pre-treated overnight with PAN-811 (in vehicle).
(§2) The lactate dehydrogenase (LDH) assay (Promega) is based on the reduction of NAD by the action of LDH. The resulting reduced NAD (NADH) is utilized in the stoichiometric conversion of a tetrazolium dye. If cell-free aliquots of medium from cultures given different treatments are assayed, then the amount of LDH activity can be used as an indicator of relative cell death as well as a function of membrane integrity. A 50 μl aliquot of culture medium from a well in tested 96-well plate is transferred into a well in unused plate and supplemented with 25 μl of equally-mixed Substrate, Enzyme and Dye Solutions (Sigma). The preparation is incubated at room temperature for 20-30 minutes, and then measured spectrophotometrically at wavelength of 490 nm.

[2] = single 2-h infusion every 4 weeks, cited from earlier work
[3] = tested on: embryonic (E18) rat cortical and striatal neurons; assay: Morphological changes, H/H and tPA insult (Example 2); format: cell-based
Experimental: (§3) A mixed culture of embryonic (E18) rat cortical and striatal neurons was cultured for 13 days in neurobasal medium (Invitrogen), then insulted by hypoglycemia/hypoxia (H/H) conditions for 6 hours, or a combination of H/H and 20 μg/ml tPA. The H/H conditions were 1.2 mM glucose (normally 25 mM in culture medium) and the absence of oxygen for 6 hours. (Following H/H conditions, the cultures were returned to the typical conditions of 25 mM glucose medium and 95% ambient air plus 5% CO2.)
(§4) In a further experiment, cells that were under H/H conditions and also treated with the tPA were divided into groups, which were either co-treated or post-treated (i.e., during or after the 6 hour insult period) with control vehicle or each of PAN-811 at concentrations of 1.25, 2.5, 5 and 10 μM.
The experimental results were evaluated by morphological changes, and LDH and MTS analyses.

[4] = tested on: embryonic (E18) rat cortical and striatal neurons; assay: LDH assay, hypoglycemia/hypoxia (H/H) and tPA insult (Example 2); format: cell-based
Experimental: as §2
In this example, PAN-811 was dissolved in PEG:EtOH (7:3) to a concentration of 25 mM, and further diluted in neurobasal medium to final concentrations of 1.25, 2.5, 5 and 10 μM. The control vehicle is 1:10,000 PEG:EtOH (7:3 in BSS).
as §3, §4

[5] = systematic administration (Jiang et al.); cited from earlier work
[6] = tested on: embryonic (E18) rat cortical and striatal neurons; assay: MTS (mitochondrial function) assay, glutamate / tPA insult (Example 1); format: cell-based; conditions: 15 μM glutamate, 20 μg/ml tPA, insult 24 hours
Experimental: as §1, with “In a further test category, neurons that were to be insulted for 24 hours with the combination of 15 μM glutamate and 20 μg/ml tPA, were divided into groups in which (1) cells were not pre-treated prior to insult; (2) were pretreated overnight with 1:12,500 vehicle (used for PAN-811), or (3) were pre-treated overnight with PAN-811 (in vehicle).” left out
The 3-(4,5-dimethylthiazol-2-yl)-5-(3-carboxymethoxyphenyl)-2-(4-sulfophenyl)-2H-tetrazolium (MTS) assay (Promega) is routinely used to evaluate mitochondrial function, and reduced readings are correlated with neuronal cell death. The MTS tetrazolium compound is reduced in metabolically active mitochondria into a colored formazan product that is soluble in tissue culture medium, and can be detected via its absorbance 490 nm. […] The absorbance at 490 nm was recorded using a Bio-Rad 96 well plate reader.

[7] = tested on: embryonic (E18) rat cortical and striatal neurons; assay: Morphological changes, glutamate / tPA insult (Example 1); format: cell-based; conditions: 15 μM glutamate, 20 μg/ml tPA, insult 24 hours
Experimental: as §1
The experimental results were evaluated by morphological changes, lactate dehydrogenase (LDH) and MTS (mitochondrial function) analyses.

[8] = tested on: tPA-potentiated, NMDA-mediated, excitotoxic neuronal death; conditions: cited from earlier work
[9] = tested on: embryonic (E18) rat cortical and striatal neurons; assay: MTS assay, H/H and tPA insult (Example 2); format: cell-based; conditions: H/H 6 hours combined with 20 μg/ml tPA
Experimental: The 3-(4,5-dimethylthiazol-2-yl)-5-(3-carboxymethoxyphenyl)-2-(4-sulfophenyl)-2H-tetrazolium (MTS) assay (Promega) is routinely used to evaluate mitochondrial function, and reduced readings are correlated with neuronal cell death. The MTS tetrazolium compound is reduced in metabolically active mitochondria into a colored formazan product that is soluble in tissue culture medium, and can be detected via its absorbance 490 nm. 10 μl of MTS reagent (Promega) are added to each well of the 96 well assay plates containing the samples in 50 μl of culture medium. The plate is then incubated in a humidified, 5% CO2 atmosphere at 37° C. for 1-2 hours until the color is fully developed. The absorbance at 490 nm was recorded using a Bio-Rad 96 well plate reader.
as §3

Compound: NC(=S)N/N=C/c1ncccc1N [PAN-811, 3-aminopyridine-2-carboxaldehyde thiosemicarbazone]
- reduction of LDH reading as compared to no pre-treatment or control vehicle ([1]; pre-treated overnight with 2 μM PAN-811, insult 15 μM glutamate and 20 μg/ml tPA, 24 hours): about 11%
- well tolerated dose ([2]; 46 courses of therapy): up to 105 mg/m^2
- dose limiting toxicity ([2]; doses up to 105 mg/m^2): not identified
- neuronal morphology ([3]; co- or post-treatment, 1.25-10 μM PAN-811, H/H and tPA conditions): preserved neuronal morphology
- neuroprotection (LDH readings) ([4]; 1.25 μM PAN-811, H/H and tPA): effective in significantly reducing LDH readings
- protection (LDH) ([4]; 5 μM PAN-811 post-insult (H/H and tPA)): 51%
- decrease of LDH reading ([4]; co-treated with 5 μM PAN-811 during H/H and tPA insult): 23%
- dose dependence of protection ([4]; co-treatment or post-treatment, 1.25, 2.5, 5 and 10 μM, H/H and tPA): showed a dose response correlation
- passage of the BBB [5]: will pass the BBB

Compound: N[C@@H](CCC(=O)O)C(=O)O [glutamate, reference compound]
- increase in LDH over the control ([1]; 15 μM glutamate, 20 μg/ml tPA, insult 24 hours): 4.4 fold
- reduction in the MTS reading over the control [6]: 13%
- morphology of neurons [7]: strong neuronal cell death

Compound: Cl.Cl.N=C(N)c1ccc(C=C2CCCCC(=Cc3ccc(C(=N)N)cc3)C2=O)cc1 [tPA-Stop™, 2,7-bis-(4-amidino-benzylidene)-cycloheptan-1-one dihydrochloride]
- effect on alpha-amino-2,3-dihydro-5-methyl-3-oxo-4-isoxazole propanoic acid or kainate-mediated necrosis [8]: fails to modulate
- effect on tPA-potentiated, NMDA-mediated, excitotoxic neuronal death [8]: effective in reducing

Compound: tPA: Recombinant tissue-type plasminogen activator, a thrombolytic-acting drug approved for ischemic stroke
- decrease of MTS reading [9]: 51%
- toxicity to neurons by LDH assay ([1]; 20 μg/ml tPA alone, 24 hours): not toxic
- morphology, neuronal cell death ([3]; H/H combined with 20 μg/ml tPA, by 17 hours post-insult): robust neuronal cell death
- reduction in the MTS reading over the control [6]: did not cause any reduction
- enhancement in the LDH reading over control ([4]; H/H 6 hours combined with 20 μg/ml tPA): 3.3 fold
- morphology of neurons [7]: neurons remained healthy
